Experiments:
barnyardgrass [1] = assay: Test A preemergence; format: in vivo, Echinochloa crus-galli; conditions: 0 to 100 scale (0 no effect, 100 complete control)
Source text: (§1) Seeds of plant species selected from barnyardgrass (Echinochloa crus-galli), crabgrass, large (large crabgrass, Digitaria sanguinalis), kochia (Kochia scoparia), ragweed (common ragweed, Ambrosia elatior), foxtail, giant (giant foxtail, Setaria faberii), morningglory (Ipomoea spp.), pigweed (Amaranthus retroflexus), velvetleaf (Abutilon theophrasti), ryegrass, Italian (Italian ryegrass, Lolium multiflorum), wheat (Triticum aestivum), and corn (Zea mays) were planted into a blend of loam soil and sand and treated preemergence with a directed soil spray using test chemicals formulated in a non-phytotoxic solvent mixture which included a surfactant. At the same time, plants selected from these crop and weed species and also blackgrass (Alopecurus myosuroides), and galium (catchweed bedstraw, Galium aparine), were planted in pots containing the same blend of loam soil and sand and treated with postemergence applications of test chemicals formulated in the same manner. Plants ranged in height from 2 to 10 cm and were in the one- to two-leaf stage for the postemergence treatment. […] A dash (-) response means no test result.

blackgrass = assay: Test A postemergence; format: in vivo, Alopecurus myosuroides; conditions: 0 to 100 scale (0 no effect, 100 complete control), approx. 10 d
Source text: (§2) Seeds of plant species selected from barnyardgrass (Echinochloa crus-galli), crabgrass, large (large crabgrass, Digitaria sanguinalis), kochia (Kochia scoparia), ragweed (common ragweed, Ambrosia elatior), foxtail, giant (giant foxtail, Setaria faberii), morningglory (Ipomoea spp.), pigweed (Amaranthus retroflexus), velvetleaf (Abutilon theophrasti), ryegrass, Italian (Italian ryegrass, Lolium multiflorum), wheat (Triticum aestivum), and corn (Zea mays) were planted into a blend of loam soil and sand and treated preemergence with a directed soil spray using test chemicals formulated in a non-phytotoxic solvent mixture which included a surfactant.
(§3) At the same time, plants selected from these crop and weed species and also blackgrass (Alopecurus myosuroides), and galium (catchweed bedstraw, Galium aparine), were planted in pots containing the same blend of loam soil and sand and treated with postemergence applications of test chemicals formulated in the same manner. Plants ranged in height from 2 to 10 cm and were in the one- to two-leaf stage for the postemergence treatment. Treated plants and untreated controls were maintained in a greenhouse for approximately 10 d, after which time all treated plants were compared to untreated controls and visually evaluated for injury. Plant response ratings, summarized in Table A, are based on a 0 to 100 scale where 0 is no effect and 100 is complete control. A dash (-) response means no test result.

foxtail, giant [2] = assay: Test A preemergence; format: in vivo, Setaria faberii; conditions: 0 to 100 scale (0 no effect, 100 complete control)
Source text: as §1

wheat = assay: Test A postemergence; format: in vivo, Triticum aestivum; conditions: 0 to 100 scale (0 no effect, 100 complete control), approx. 10 d
Source text: as §1

kochia [3] = assay: Test A postemergence; format: in vivo, Kochia scoparia; conditions: 0 to 100 scale (0 no effect, 100 complete control), approx. 10 d
Source text: as §2, §3

corn = assay: Test A postemergence; format: in vivo, Zea mays; conditions: 0 to 100 scale (0 no effect, 100 complete control), approx. 10 d
Source text: as §1

galium = assay: Test A postemergence; format: in vivo, Galium aparine; conditions: 0 to 100 scale (0 no effect, 100 complete control), approx. 10 d
Source text: as §2, §3

ryegrass, Italian [4] = assay: Test A preemergence; format: in vivo, Lolium multiflorum; conditions: 0 to 100 scale (0 no effect, 100 complete control)
Source text: as §2, §3

pigweed [5] = assay: Test A preemergence; format: in vivo, Amaranthus retroflexus; conditions: 0 to 100 scale (0 no effect, 100 complete control)
Source text: as §1

ragweed [6] = assay: Test A postemergence; format: in vivo, Ambrosia elatior; conditions: 0 to 100 scale (0 no effect, 100 complete control), approx. 10 d
Source text: as §2, §3

foxtail, giant [7] = assay: Test A postemergence; format: in vivo, Setaria faberii; conditions: 0 to 100 scale (0 no effect, 100 complete control), approx. 10 d
Source text: as §1

pigweed [8] = assay: Test A postemergence; format: in vivo, Amaranthus retroflexus; conditions: 0 to 100 scale (0 no effect, 100 complete control), approx. 10 d
Source text: as §1

ragweed [9] = assay: Test A preemergence; format: in vivo, Ambrosia elatior; conditions: 0 to 100 scale (0 no effect, 100 complete control)
Source text: as §2, §3

kochia [10] = assay: Test A preemergence; format: in vivo, Kochia scoparia; conditions: 0 to 100 scale (0 no effect, 100 complete control)
Source text: as §2, §3

barnyardgrass [11] = assay: Test A postemergence; format: in vivo, Echinochloa crus-galli; conditions: 0 to 100 scale (0 no effect, 100 complete control), approx. 10 d
Source text: as §1

ryegrass, Italian [12] = assay: Test A postemergence; format: in vivo, Lolium multiflorum; conditions: 0 to 100 scale (0 no effect, 100 complete control), approx. 10 d
Source text: as §2, §3

Row | Compound | Plant response rating, Barnyardgrass (barnyardgrass [1]; 31 g ai/ha) | Plant response rating, Barnyardgrass (barnyardgrass [1]; 125 g ai/ha) | Plant response rating, Blackgrass (blackgrass; 31 g ai/ha) | Plant response rating, Blackgrass (blackgrass; 125 g ai/ha) | Plant response rating, Foxtail, Giant (foxtail, giant [2]; 31 g ai/ha) | Plant response rating, Foxtail, Giant (foxtail, giant [2]; 125 g ai/ha) | Plant response rating, Wheat (wheat; 31 g ai/ha) | Plant response rating, Wheat (wheat; 125 g ai/ha) | Plant response rating, Kochia (kochia [3]; 31 g ai/ha) | Plant response rating, Kochia (kochia [3]; 125 g ai/ha) | Plant response rating, Corn (corn; 31 g ai/ha) | Plant response rating, Corn (corn; 125 g ai/ha) | Plant response rating, Galium (galium; 31 g ai/ha) | Plant response rating, Galium (galium; 125 g ai/ha) | Plant response rating, Ryegrass, Italian (ryegrass, Italian [4]; 31 g ai/ha) | Plant response rating, Ryegrass, Italian (ryegrass, Italian [4]; 125 g ai/ha) | Plant response rating, Pigweed (pigweed [5]; 31 g ai/ha) | Plant response rating, Pigweed (pigweed [5]; 125 g ai/ha) | Plant response rating, Ragweed (ragweed [6]; 31 g ai/ha) | Plant response rating, Ragweed (ragweed [6]; 125 g ai/ha) | other results
1 | FC(F)(F)COc1nc(-c2ccc(C(F)(F)F)cc2)nn1Cc1ccnc(C(F)(F)F)c1 [Compound 34] | 30 | 100 | 20 | 50 | 100 | 100 | 30 | 50 | 70 | 90 | 20 | 20 | 30 | 90 | 0 | 90 | 100 | 100 | 20 | 50 | Plant response rating, Foxtail, Giant (foxtail, giant [7]; 31 g ai/ha): 20; Plant response rating, Foxtail, Giant (foxtail, giant [7]; 125 g ai/ha): 90; Plant response rating, Pigweed (pigweed [8]; 31 g ai/ha): 100; Plant response rating, Pigweed (pigweed [8]; 125 g ai/ha): 100; Plant response rating, Ragweed (ragweed [9]; 31 g ai/ha): 0; Plant response rating, Ragweed (ragweed [9]; 125 g ai/ha): 30; Plant response rating, Kochia (kochia [10]; 31 g ai/ha): 20; Plant response rating, Kochia (kochia [10]; 125 g ai/ha): 90; Plant response rating, Barnyardgrass (barnyardgrass [11]; 31 g ai/ha): 20; Plant response rating, Barnyardgrass (barnyardgrass [11]; 125 g ai/ha): 70; Plant response rating, Ryegrass, Italian (ryegrass, Italian [12]; 31 g ai/ha): 0; Plant response rating, Ryegrass, Italian (ryegrass, Italian [12]; 125 g ai/ha): 20
2 | Cc1nc(-c2ccc(F)cc2)nn1Cc1ccnc(C(F)(F)F)c1 [Compound 38] | 0 | 80 | 10 | 40 | 20 | 100 | 0 | 10 | 70 | 90 | 10 | 30 | 30 | 90 | 0 | 10 | 90 | 100 | 0 | 30 | Plant response rating, Foxtail, Giant (foxtail, giant [7]; 31 g ai/ha): 20; Plant response rating, Foxtail, Giant (foxtail, giant [7]; 125 g ai/ha): 80; Plant response rating, Pigweed (pigweed [8]; 31 g ai/ha): 80; Plant response rating, Pigweed (pigweed [8]; 125 g ai/ha): 90; Plant response rating, Ragweed (ragweed [9]; 31 g ai/ha): 0; Plant response rating, Ragweed (ragweed [9]; 125 g ai/ha): 20; Plant response rating, Kochia (kochia [10]; 31 g ai/ha): 30; Plant response rating, Kochia (kochia [10]; 125 g ai/ha): 100; Plant response rating, Barnyardgrass (barnyardgrass [11]; 31 g ai/ha): 0; Plant response rating, Barnyardgrass (barnyardgrass [11]; 125 g ai/ha): 20; Plant response rating, Ryegrass, Italian (ryegrass, Italian [12]; 31 g ai/ha): 0; Plant response rating, Ryegrass, Italian (ryegrass, Italian [12]; 125 g ai/ha): 0
3 | COc1nc(-c2ccc(OC(F)(F)F)cc2)nn1Cc1ccnc(C(F)(F)F)c1 [Compound 40] | 0 | 0 | 0 | 0 | 0 | 0 | 0 | 0 | 0 | 0 | 0 | 20 | 20 | 30 | 0 | 0 | 0 | 30 | 0 | 0 | Plant response rating, Foxtail, Giant (foxtail, giant [7]; 31 g ai/ha): 0; Plant response rating, Foxtail, Giant (foxtail, giant [7]; 125 g ai/ha): 0; Plant response rating, Pigweed (pigweed [8]; 31 g ai/ha): 30; Plant response rating, Pigweed (pigweed [8]; 125 g ai/ha): 70; Plant response rating, Ragweed (ragweed [9]; 31 g ai/ha): 0; Plant response rating, Ragweed (ragweed [9]; 125 g ai/ha): 0; Plant response rating, Kochia (kochia [10]; 31 g ai/ha): 0; Plant response rating, Kochia (kochia [10]; 125 g ai/ha): 0; Plant response rating, Barnyardgrass (barnyardgrass [11]; 31 g ai/ha): 0; Plant response rating, Barnyardgrass (barnyardgrass [11]; 125 g ai/ha): 0; Plant response rating, Ryegrass, Italian (ryegrass, Italian [12]; 31 g ai/ha): 0; Plant response rating, Ryegrass, Italian (ryegrass, Italian [12]; 125 g ai/ha): 0

From US10681909B2, “Herbicidal triazoles” (FMC Corporation, priority 2014, dated 2020)
